Measurements as given in ChEMBL document CHEMBL5365539, “Selective modifications of lactose and N-acetyllactosamine with sulfate and aromatic bulky groups unveil unique structural insights in galectin-1-ligand recognition” (Bioorg Med Chem, 2023).

What was measured:
Galectin-1 [1] = molecular target: T1, Galectin-1 (Homo sapiens, UniProt P09382); experiment: Potency index, ratio of test compound IC50 to (2S,3R,4S,5R,6R)-2-(((2R,3S,4R,5R,6R)-4,5 dihydroxy-2-(hydroxymethyl)-6 methoxytetrahydro-2H-pyran-3-yl)oxy)-6(hydroxymethyl)tetrahydro-2H-pyran-3,4,5-triol IC50 for inhibition of asialofetuin binding to human recombinant Gal-1 transfected in Escherichia coli BL21 (DE3) incubated for 2 hrs by competitive solid-phase assay
Galectin-1 [2] = molecular target: T1, Galectin-1; experiment: Inhibition of asialofetuin binding to human recombinant Gal-1 transfected in Escherichia coli BL21 (DE3) incubated for 2 hrs by competitive solid-phase assay
Galectin-1 [3] = molecular target: T1, Galectin-1; experiment: Binding affinity to human recombinant Gal-1 assessed as gibbs free energy change by ITC analysis
Galectin-1 [4] = molecular target: T1, Galectin-1; experiment: Binding affinity to human recombinant Gal-1 assessed as change in enthalpy by ITC analysis
Galectin-1 [5] = molecular target: T1, Galectin-1; experiment: Binding affinity to human recombinant Gal-1 assessed as dissociation constant by ITC analysis
Galectin-1 [6] = molecular target: T1, Galectin-1; experiment: Binding affinity to human recombinant Gal-1 assessed as association constant by ITC analysis
Galectin-1 [7] = molecular target: T1, Galectin-1; experiment: Binding affinity to human recombinant Gal-1 assessed as change in entropy by ITC analysis

T1 sequence (P09382 whole entry): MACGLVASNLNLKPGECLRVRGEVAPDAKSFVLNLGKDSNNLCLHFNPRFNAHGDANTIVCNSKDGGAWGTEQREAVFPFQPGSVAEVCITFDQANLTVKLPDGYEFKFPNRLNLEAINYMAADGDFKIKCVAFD

Row | SMILES | Ratio IC50 (Galectin-1 [1]) | IC50 (Galectin-1 [2]) [mM] | deltaG (Galectin-1 [3]) [kcal/mol] | deltaH (Galectin-1 [4]) [kcal/mol] | Kd (Galectin-1 [5]) [mM] | Ka (Galectin-1 [6]) | deltaS (Galectin-1 [7]) [J/mol.K]
1 | COc1cc(/C=C/C(=O)O)ccc1O[C@@H]1O[C@H](CO)[C@@H](O[C@@H]2O[C@H](CO)[C@H](O)[C@H](O)[C@H]2O)[C@H](O)[C@H]1O | 0.65 | 4.8 | – | – | – | – | –
2 | C#CCO[C@@H]1O[C@H](CO)[C@@H](O[C@@H]2O[C@H](CO)[C@H](O)[C@H](O)[C@H]2O)[C@H](O)[C@H]1NC(C)=O | 1.45 | 10.7 | – | – | – | – | –
3 | COc1cc(C(=O)O)ccc1O[C@@H]1O[C@H](CO)[C@@H](O[C@@H]2O[C@H](CO)[C@H](O)[C@H](OS(=O)(=O)O)[C@H]2O)[C@H](O)[C@H]1O | 0.53 | 3.9 | -4.83 | -5.28 | 0.284 | 3.5 10^3/M | -6.2
4 | CC(=O)N[C@H]1C(O)O[C@H](CO)[C@@H](O[C@@H]2O[C@H](CO)[C@H](O)[C@H](O)[C@H]2O)[C@@H]1O (stereo not given in full) | 1.02 | 7.5 | – | – | – | – | –
5 | C#CCO[C@@H]1O[C@H](CO)[C@@H](O[C@@H]2O[C@H](CO)[C@H](O)[C@H](OS(=O)(=O)O)[C@H]2O)[C@H](O)[C@H]1NC(C)=O | 0.65 | 4.8 | – | – | – | – | –
6 | OC[C@H]1O[C@@H](O[C@H]2[C@H](O)[C@@H](O)C(O)O[C@@H]2CO)[C@H](O)[C@@H](O)[C@H]1O (stereo not given in full) | – | – | – | -6.79 | – | 3.2 10^3/M | -28
7 | C#CCO[C@@H]1O[C@H](CO)[C@@H](O[C@@H]2O[C@H](CO)[C@H](O)[C@H](O[C@]3(C(=O)O)C[C@H](O)[C@@H](NC(C)=O)[C@H]([C@@H](O)[C@H](O)CO)O3)[C@H]2O)[C@H](O)[C@H]1NC(C)=O | 1.31 | 9.7 | – | – | – | – | –
8 | COc1cc(CCC(=O)O)ccc1O[C@@H]1O[C@H](CO)[C@@H](O[C@@H]2O[C@H](CO)[C@H](O)[C@H](O)[C@H]2O)[C@H](O)[C@H]1O | 0.56 | 4.1 | – | – | – | – | –
9 | COc1cc(C=O)ccc1O[C@@H]1O[C@H](CO)[C@@H](O[C@@H]2O[C@H](CO)[C@H](O)[C@H](OS(=O)(=O)O)[C@H]2O)[C@H](O)[C@H]1O | 0.82 | 6.1 | – | – | – | – | –

Further compounds by falling IC50 (Galectin-1 [2]), results first:

Row | Ratio IC50 (Galectin-1 [1]) | IC50 (Galectin-1 [2]) [mM] | deltaG (Galectin-1 [3]) [kcal/mol] | deltaH (Galectin-1 [4]) [kcal/mol] | Kd (Galectin-1 [5]) [mM] | Ka (Galectin-1 [6]) | deltaS (Galectin-1 [7]) [J/mol.K] | SMILES
10 | 1.46 | 10.8 | – | – | – | – | – | COc1cc(CO)ccc1O[C@@H]1O[C@H](CO)[C@@H](O[C@@H]2O[C@H](CO)[C@H](O)[C@H](O)[C@H]2O)[C@H](O)[C@H]1O
11 | 1.02 | 7.5 | – | – | – | – | – | COC(=O)c1ccc(O[C@@H]2O[C@H](CO)[C@@H](O[C@@H]3O[C@H](CO)[C@H](O)[C@H](O)[C@H]3O)[C@H](O)[C@H]2O)c(OC)c1
12 | – | 7.4 | – | – | – | – | – | CO[C@@H]1O[C@H](CO)[C@@H](O[C@@H]2O[C@H](CO)[C@H](O)[C@H](O)[C@H]2O)[C@H](O)[C@H]1O
13 | 0.99 | 7.3 | – | – | – | – | – | C#CCO[C@@H]1O[C@H](CO)[C@@H](O[C@@H]2O[C@H](CO)[C@H](O)[C@H](OCC(=O)O)[C@H]2O)[C@H](O)[C@H]1NC(C)=O
14 | 0.89 | 6.6 | – | – | – | – | – | O=[N+]([O-])c1ccc(O[C@@H]2O[C@H](CO)[C@@H](O[C@@H]3O[C@H](CO)[C@H](O)[C@H](O)[C@H]3O)[C@H](O)[C@H]2O)cc1
15 | 0.83 | 6.1 | – | – | – | – | – | CC(=O)N[C@H]1[C@H](Oc2ccc([N+](=O)[O-])cc2)O[C@H](CO)[C@@H](O[C@@H]2O[C@H](CO)[C@H](O)[C@H](OS(=O)(=O)O)[C@H]2O)[C@@H]1O
16 | 0.83 | 6.1 | – | – | – | – | – | C#CCO[C@@H]1O[C@H](CO)[C@@H](O[C@@H]2O[C@H](CO)[C@H](O)[C@H](O)[C@H]2O)[C@H](O)[C@H]1O
17 | 0.79 | 5.9 | – | – | – | – | – | O=[N+]([O-])c1ccc(O[C@@H]2O[C@H](CO)[C@@H](O[C@@H]3O[C@H](CO)[C@H](O)[C@H](OS(=O)(=O)O)[C@H]3O)[C@H](O)[C@H]2O)cc1
18 | 0.78 | 5.7 | – | – | – | – | – | CC(=O)N[C@H]1[C@H](Oc2ccc([N+](=O)[O-])cc2)O[C@H](CO)[C@@H](O[C@@H]2O[C@H](CO)[C@H](O)[C@H](O)[C@H]2O)[C@@H]1O
19 | 0.48 | 3.6 | -5.02 | -6.67 | 0.206 | 4.9 10^3/M | -23.1 | COc1cc(C(=O)OC(C)(C)C)ccc1O[C@@H]1O[C@H](CO)[C@@H](O[C@@H]2O[C@H](CO)[C@H](O)[C@H](O)[C@H]2O)[C@H](O)[C@H]1O
20 | 0.43 | 3.2 | -5.38 | -6.93 | 0.117 | 8.6 10^3/M | -21.3 | COc1cc(C(=O)OC(C)(C)C)ccc1O[C@@H]1O[C@H](CO)[C@@H](O[C@@H]2O[C@H](CO)[C@H](O)[C@H](OS(=O)(=O)O)[C@H]2O)[C@H](O)[C@H]1O
